Source: patent US5834259A, “Process and composition for preparing D-aspartic acid” (Monsanto Company, priority 1996, dated 1998)

Key:
Assay type in all cases: biochemical, E. coli K12
[1] = target: T1, L-aspartate-α-decarboxylase (Escherichia coli, UniProt P0A790); assay: Activity towards D/L-glutamate and D/L-alanine, D/L-aspartate as control (Example 8); details: racemate substrate, pH 7.0
T1 construct: expressed in transfected cells; host or cells: E. coli W3110 transformed with pIF309 = strain NS3291 (ATCC 98675), whole cells
Procedure: D/L-aspartate was run as a control.
Substrates were prepared by dissolving solid amino acid racemate in approximately 75 ml deionized H2 O and adjusting the pH to 7.0 with 10N NaOH. The volume was then brought to 100 ml with deionized H2 O. The cells used were stored frozen for about 1 month and then thawed and stored in a refrigerator for about 1 month prior to running the experiments.
The reaction was run the same as described in the prior Examples. Samples of supernatant fluid, approximately 0.20 ml, were removed over time, centrifuged and stored frozen before analysis by HPLC as described in the prior Examples.

[2] = target: T1, L-aspartate-α-decarboxylase; assay: 1.0M D/L-aspartate, 100 g/l cells, reaction A (Example 6); details: 1.0M, 100 g/l cells, 37° C.
Procedure: (§1) 1.0M D/L-aspartate was tested as a substrate for two enzyme cell loads, 100 g/l cells, referred to here as reaction "A", and 50 g/l cells, referred to here as reaction "B".
(§2) 133.1 g of D/L-aspartic acid was dissolved in approximately 600 ml deionized H2 O and pH was adjusted to 7.0 with NaOH, using 100 ml of 10N NaOH and a small amount of 1.0N NaOH. The substrate for reaction A was brought to 963 ml with deionized H2 O. The reaction was started with 137 ml cells that were stored in the cold room. For reaction B, the substrate was brought to a volume of 981.5 ml. The reaction was started with […] cells.
(§3) Both reactions were carried out in 2 L fermentors at pH 7.0 without constant adjustments and at 37° C. Samples were removed over time, centrifuged and the supernatant fluid was diluted and submitted for D- and L-aspartic acid HPLC analysis.

[3] = target: T1, L-aspartate-α-decarboxylase; assay: Temperature study, 50° C. (Example 9); details: for concentration in supernatant fluid / percent remaining: 1.0M, 100 g/l cells
Procedure: 133.1 g (1 mol) of D/L-aspartic acid was dissolved in deionized H2 O and the pH was adjusted to 7.0 with 10N NaOH, approximately 100 ml. Cells, freshly thawed from -80° C., were added to achieve a final concentration of 100 g/l. Three 2 L fermentors were each charged with 963 ml of substrate solution and 137 ml of cells and then heated to 37° C. and 45° C. while mixing at 300 rpm or heated to 50° C. while mixing at 450 rpm. Samples, approximately 1 ml, were removed over time and pH adjusted to 7.0 with either NaOH or HCl. After centrifugation to remove cells, the supernatant fluid was analyzed for both D- and L-aspartic acid.

[4] = target: T1, L-aspartate-α-decarboxylase; assay: NH4OH neutralized 1.0M D/L-aspartate substrate (Example 7); details: 1.0M, NH4OH neutralized, 37° C.
Procedure: Cells were stored frozen at -80° C. 133.1 g (1 mol) D/L-aspartic acid was dissolved in approximately 600 ml deionized H2 O and adjusted to a pH of about 7 with concentrated NH4 OH. The final volume of substrate was brought to 963 ml to which was added 137 ml cells, freshly thawed. The mixture was placed in the 2 L fermentor and the temperature adjusted to 37° C. No automatic pH control was used, however, the pH was monitored as samples were removed and the pH adjusted with 50% NH4 OH. Samples, approximately 1 ml, were removed periodically, centrifuged, and the supernatant fluid was stored frozen prior to diluting and HPLC analysis.

[5] = target: T1, L-aspartate-α-decarboxylase; assay: 1.0M D/L-aspartate, 50 g/l cells, reaction B (Example 6); details: 37° C.
Procedure: as §1, §2, §3

N[C@H](CC(=O)O)C(=O)O [D-Asp, D-aspartic acid]
concentration in supernatant fluid ([1]; 0 hr): 29.890 mg/mL | concentration in supernatant fluid ([1]; 3.5 hr): 29.850 mg/mL | percent remaining ([1]; 3.5 hr): 99.866% | concentration in supernatant fluid ([1]; 8.5 hr): 29.900 mg/mL | percent remaining ([1]; 8.5 hr): 100.03% | concentration in supernatant fluid ([1]; 24 hr): 29.740 mg/mL | percent remaining ([1]; 24 hr): 99.498% | concentration in supernatant fluid ([1]; 55 hr): 30.120 mg/mL | percent remaining ([1]; 55 hr): 100.77% | concentration in supernatant fluid ([2]; 0.0000 hr): 53.600 mg/mL | concentration in supernatant fluid ([2]; 2.0000 hr): 50.680 mg/mL | concentration in supernatant fluid ([2]; 4.5000 hr): 44.920 mg/mL | concentration in supernatant fluid ([2]; 7.0000 hr): 42.260 mg/mL | concentration in supernatant fluid ([2]; 22.500 hr): 35.680 mg/mL | concentration in supernatant fluid ([2]; 24.000 hr): 34.420 mg/mL | concentration in supernatant fluid ([2]; 31.000 hr): 32.660 mg/mL | concentration in supernatant fluid ([2]; 37.500 hr): 27.950 mg/mL | concentration in supernatant fluid ([2]; 47.000 hr): 20.710 mg/mL | concentration in supernatant fluid ([2]; 50.500 hr): 18.490 mg/mL | concentration in supernatant fluid ([2]; 53.800 hr): 13.730 mg/mL | concentration in supernatant fluid ([2]; 58.000 hr): 13.410 mg/mL | concentration in supernatant fluid ([2]; 70.000 hr): 6.1300 mg/mL | concentration in supernatant fluid ([2]; 72.000 hr): 5.3900 mg/mL | stability of the isomer [3]: stable | concentration in supernatant fluid ([3]; 0.000 hr): 54.89 mg/mL | concentration in supernatant fluid ([3]; 1.000 hr): 54.30 mg/mL | percent remaining ([3]; 1.000 hr): 52.78% | concentration in supernatant fluid ([3]; 3.000 hr): 58.01 mg/mL | percent remaining ([3]; 3.000 hr): 40.61% | concentration in supernatant fluid ([3]; 5.0000 hr): 58.16 mg/mL | percent remaining ([3]; 5.0000 hr): 36.97% | concentration in supernatant fluid ([3]; 7.000 hr): 58.51 mg/mL | percent remaining ([3]; 7.000 hr): 35.69% | concentration in supernatant fluid ([3]; 9.000 hr): 58.88 mg/mL | percent remaining ([3]; 9.000 hr): 33.99% | concentration in supernatant fluid ([3]; 13.50 hr): 59.62 mg/mL | percent remaining ([3]; 13.50 hr): 34.19% | concentration in supernatant fluid ([3]; 23.00 hr): 56.71 mg/mL | percent remaining ([3]; 23.00 hr): 31.98% | concentration in supernatant fluid ([3]; 25.00 hr): 59.85 mg/mL | percent remaining ([3]; 25.00 hr): 31.86% | concentration in supernatant fluid ([3]; 27.00 hr): 56.87 mg/mL | percent remaining ([3]; 27.00 hr): 26.89% | concentration in supernatant fluid ([3]; 32.00 hr): 57.30 mg/mL | percent remaining ([3]; 32.00 hr): 25.85% | concentration in supernatant fluid ([3]; 37.50 hr): 58.48 mg/mL | percent remaining ([3]; 37.50 hr): 27.54% | concentration in supernatant fluid ([3]; 47.00 hr): 57.93 mg/mL | percent remaining ([3]; 47.00 hr): 25.58% | concentration in supernatant fluid ([3]; 52.00 hr): 58.74 mg/mL | percent remaining ([3]; 52.00 hr): 27.28% | concentration in supernatant fluid ([3]; 57.00 hr): 65.56 mg/mL | percent remaining ([3]; 57.00 hr): 32.42% | concentration in supernatant fluid ([3]; 71.00 hr): 57.17 mg/mL | percent remaining ([3]; 71.00 hr): 25.52% | concentration in supernatant fluid ([3]; 77.00 hr): 57.85 mg/mL | percent remaining ([3]; 77.00 hr): 25.86% | concentration in supernatant fluid ([3]; 81.00 hr): 57.41 mg/mL | percent remaining ([3]; 81.00 hr): 25.54% | concentration in supernatant fluid ([3]; 99.75 hr): 59.36 mg/mL | percent remaining ([3]; 99.75 hr): 26.14% | concentration in supernatant fluid ([4]; 0.0000 hr): 55.260 mg/mL | concentration in supernatant fluid ([4]; 3.0000 hr): 54.670 mg/mL | percent remaining ([4]; 3.0000 hr): 98.932% | concentration in supernatant fluid ([4]; 6.0000 hr): 49.100 mg/mL | percent remaining ([4]; 6.0000 hr): 88.853% | concentration in supernatant fluid ([4]; 9.0000 hr): 47.810 mg/mL | percent remaining ([4]; 9.0000 hr): 86.518% | concentration in supernatant fluid ([4]; 19.000 hr): 43.490 mg/mL | percent remaining ([4]; 19.000 hr): 78.701% | concentration in supernatant fluid ([4]; 23.500 hr): 39.120 mg/mL | percent remaining ([4]; 23.500 hr): 70.793% | concentration in supernatant fluid ([4]; 28.000 hr): 36.290 mg/mL | percent remaining ([4]; 28.000 hr): 65.671% | concentration in supernatant fluid ([4]; 32.500 hr): 33.540 mg/mL | percent remaining ([4]; 32.500 hr): 60.695% | concentration in supernatant fluid ([4]; 43.000 hr): 30.370 mg/mL | percent remaining ([4]; 43.000 hr): 54.958% | concentration in supernatant fluid ([4]; 49.000 hr): 21.580 mg/mL | percent remaining ([4]; 49.000 hr): 39.052% | concentration in supernatant fluid ([5]; 0.0000 hr): 56.730 mg/mL | concentration in supernatant fluid ([5]; 2.0000 hr): 52.420 mg/mL | concentration in supernatant fluid ([5]; 4.5000 hr): 51.340 mg/mL | concentration in supernatant fluid ([5]; 7.0000 hr): 50.470 mg/mL
